# Experimental data reported in patent US20150017673A1, “COMPOSITIONS AND METHODS FOR DRUG-SENSITIZATION OR INHIBITION OF A CANCER CELL” (priority 2012, published 2015).
# Like-named read-outs stand apart in the source and are kept apart here. Numbered stars: 1 amine (or outer) side, 2 acyl side, 3 side chain; on linkers, the order of the positions; unused ones are H or OH. Bridge positions count the residues as written; N and C are the ends. Square brackets hold non-standard residues; d marks the D form. Peptide text beside a SMILES is read from it. I, II: the chains in the order shown. Actinocin(9to1) = Cc1c2oc3c(C)ccc(C(=O)[*:1])c3nc-2c(C(=O)[*:2])c(N)c1=O; NMeV = CN[C@H](C(=O)O)C(C)C; Sar = CNCC(=O)O
# Columns and labels:
# [1] = system: drug-sensitive ovarian cancer cell line OVCAR-5; assay: Cell growth assay on OVCAR-5 cells; assay type: cell-based; settings: for IC50: Homo sapiens; for Magnitude of potentiation in combination with doxorubicin: OVCAR-5, ovarian carcinoma
# Protocol: (§1) Compositions were tested on CHOP-resistant G3 NHL cells that had been cultivated in RPMI medium for five days. Prior to assay, the cells were counted by haemocytometer and cell concentration standardized to 625,000 cells/ml. Test drugs were solubilized in 100% DMSO and then diluted to final assay concentration with 0.1M phosphate buffered saline (PBS) and a final DMSO concentration of 0.5%. Cells were added to assay plates containing the test drugs (rifabutin+148 ng/ml, 74 ng/ml, 37 ng/ml, or 0 ng/ml doxorubicin) and allowed to incubate for 96 hours at 37° C. and 5% CO2. The metabolic dye rezasurin was added to the wells of the assay plate at a final concentration of 20 μg/ml and the plates were incubated for an additional 24 hours. The plates were then read in a BMG Polarstar plate reader at wavelength (573-605) and the data plotted as OD versus increasing dilutions (i.e. decreasing total amounts) of rifabutin derivative concentration.
# (§2) In these experiments, the following cell lines were used: CHOP-resistant NHL cell line G3, CHOP-sensitive NHL cell line CRL2631, the multi-drug resistant sarcoma cell line MES-SA-Dx5; multi-drug-resistant breast cancer cell line MDA-MB-231, multi-drug resistant ovarian carcinoma cell line SK-OV3, multi-drug resistant ovarian cancer cell line NCI/ADR-RES, drug-sensitive ovarian cancer cell line OVCAR-5, and multi-drug resistant ovarian cancer cell line OVCAR-3.
# (§3) Additional cell lines used include: ovarian cancer OVCAR-8, T lymphoblastoid leukemia MOLT-4, dexamethasone-resistant multiple myeloma MM.1R, myeloid leukemia cells HL-60, osteosarcoma cells U-2 OS, and myeloma RPMI 8226.
# [2] = system: dexamethasone-resistant multiple myeloma MM.1R; assay: Cell growth assay on MM.1R cells; assay type: cell-based; settings: for Fold increase in potency: with vs without Rifabutin
# Protocol: as §1, §3
# [3] = system: multi-drug resistant ovarian cancer cell line OVCAR-3; assay: Cell growth assay on OVCAR-3 cells; assay type: cell-based; settings: for IC50: Homo sapiens
# Protocol: as §1
# as §2, with “OVCAR-3. […]” for “OVCAR-3.”
# [4] = system: multi-drug resistant sarcoma cell line MES-SA-Dx5; assay: Cell growth assay on MES-SA-Dx5 cells; assay type: cell-based; settings: for Magnitude of potentiation in combination with doxorubicin: MES-SA-Dx5, uterus sarcoma
# Protocol: as §1, §2, §3
# [5] = system: T lymphoblastoid leukemia MOLT-4; assay: Cell growth assay on MOLT-4 cells; assay type: cell-based
# Protocol: as §1, §3
# lymphoma cell line G3 = assay: Cell growth assay (resazurin fluorescence) on CHOP-resistant G3 NHL cells; assay type: cell-based, human; settings: for Magnitude of potentiation in combination with doxorubicin: G3, lymphoma B cells; for Fold increase in potency over DOX alone / IC50: lymphoma cell line G3
# Protocol: as §1
# [6] = system: multi-drug resistant ovarian carcinoma cell line SK-OV3; assay: Cell growth assay on SK-OV3 cells; assay type: cell-based, human; settings: SK-OV3, ovarian carcinoma
# Protocol: as §1
# as §2, with “OVCAR-3. […]” for “OVCAR-3.”
# [7] = system: multi-drug resistant ovarian cancer cell line NCI/ADR-RES; assay: Cell growth assay on NCI/ADR-RES cells; assay type: cell-based; settings: NCI/ADR-RES, ovarian carcinoma
# Protocol: as §1, §2, §3
# [8] = system: primary human fibroblasts; settings: with and without 2 uM Dox
# [9] = system: G3 CHOP-resistant NHL cells; settings: fourth study
# Protocol: In a first efficacy study, 6-8 week old female SCID mice (7 mice per treatment arm) were injected subcutaneously on both flanks with 1×10^7 G3 CHOP-resistant NHL cells. Once palpable tumors (about […] size) appeared, therapies (CHOP or CHOP+rifabutin) were started. CHOP was administered at the maximum tolerated dose (cyclophosphamide, 40 mg/kg i.v.; doxorubicin, 3.3 mg/kg i.v.; vincristine, 0.5 mg/kg i.v.; and prednisone, 0.2 mg/kg orally daily for 5 d) weekly for 3 weeks. Rifabutin in an amount of 100 mg/kg was administered on the day of each CHOP treatment and 24-hours later by gavage. Mouse body weight and tumor size were monitored every two days and tumor size measured by caliper. The tumor volume formula (L*W*W)/2 was used to calculate tumor mass.
# A second efficacy study was conducted where mice were treated before the appearance of palpable tumors. In that experiment, one week after transplantation of CHOP-resistant G3 cells, one group (7 mice) was treated with CHOP-only and a second group (8 mice) was treated with CHOP+rifabutin.
# A third study was conducted in which mice injected with CHOP-resistant G3 cells received reduced dosages of CHOP in combination with 33 mg/kg rifabutin. CHOP+rifabutin was administered weekly beginning one week post-inoculation. Control mice were given no CHOP or rifabutin.
# SCID mice were injected with CHOP-resistant G3 cells in the same manner as the first efficacy study above. Treatments began 2 weeks post-inoculation and were administered twice weekly.
# [10] = therapeutic drug alone, read-out: IC50
# [11] = therapeutic drug with Rifabutin, read-out: IC50 (μM) with Rifabutin
# [12] = with 1 μM doxorubicin, read-out: IC50 (μM) with doxorubicin (1 μM)
smiles,measurement,setting,value
"CC(C)C[C@H](NC(=O)[C@H](Cc1ccccc1)NC(=O)c1cnccn1)B(O)O [Velcade, bortezomib]",IC50,"[1]; therapeutic drug alone, OVCAR-5, read-out: IC50",0.17 µM
same,IC50,"[1]; therapeutic drug with Rifabutin, OVCAR-5, read-out: IC50 (μM) with Rifabutin",0.08 µM
same,Fold increase in potency,"[1]; with vs without Rifabutin, OVCAR-5",2.1 fold
"CC[C@@]1(O)C(=O)OCc2c1cc1n(c2=O)Cc2cc3ccccc3nc2-1 [Camptothecin, camptothecin]",IC50,[2]; [10],1.13 µM
same,IC50,[2]; [11],0.3 µM
same,Fold increase in potency,[2],3.8 fold
"CC1=CC(=O)c2ccccc2C1=O [Menadione, menadione]",IC50,"[3]; therapeutic drug alone, OVCAR-3, read-out: IC50",> 32 µM
same,IC50,"[3]; therapeutic drug with Rifabutin, OVCAR-3, read-out: IC50 (μM) with Rifabutin",10.9 µM
same,Fold increase in potency,"[3]; with vs without Rifabutin, OVCAR-3",>2.9 fold
same,IC50,[2]; [10],4 µM
same,IC50,[2]; [11],2 µM
same,Fold increase in potency,[2],2 fold
"Cc1c2oc3c(C)ccc(C(=O)N[C@@H]4C(=O)N[C@H](C(C)C)C(=O)N5CCC[C@H]5C(=O)N(C)CC(=O)N(C)[C@@H](C(C)C)C(=O)O[C@@H]4C)c3nc-2c(C(=O)N[C@@H]2C(=O)N[C@H](C(C)C)C(=O)N3CCC[C@H]3C(=O)N(C)CC(=O)N(C)[C@@H](C(C)C)C(=O)O[C@@H]2C)c(N)c1=O [Actinomycin D, actinomycin D] (I: T[dV]P[Sar][NMeV] / II: T[dV]P[Sar][NMeV]; ester I:1-I:C, II:1-II:C; linker I:N-II:N via Actinocin(9to1))",IC50,"[4]; therapeutic drug alone, MES-SA-Dx5, read-out: IC50",0.03 µM
same,IC50,"[4]; therapeutic drug with Rifabutin, MES-SA-Dx5, read-out: IC50 (μM) with Rifabutin",0.01 µM
same,Fold increase in potency,"[4]; with vs without Rifabutin, MES-SA-Dx5",3 fold
same,IC50,[5]; [10],0.04 µM
same,IC50,[5]; [11],< 0.008 µM
same,Fold increase in potency,[5]; with vs without Rifabutin,>5 fold
"CO[C@H]1/C=C/O[C@@]2(C)Oc3c(C)c(O)c4c(c3C2O)C2=NC3(CCN(C(=O)OCC(C)C)CC3)NC2=C(NC(=O)/C(C)=C\C=C\[C@H](C)[C@H](O)[C@@H](C)[C@@H](O)[C@@H](C)[C@H](OC(C)=O)[C@@H]1C)C4=O (some centres unmarked) [RTI-175, 11-deoxy-11-hydroxy-4-deoxy-3,4[2-spiro-[1-(isobutyloxycarbonyl)-piperidin-4-yl]]-(1H)-imidazo-(2,5-dihydro)rifamycin S]",Magnitude of potentiation in combination with doxorubicin,lymphoma cell line G3,++ (potentiation between 2.1 to 5 fold increase)
same,Fold increase in potency over DOX alone,lymphoma cell line G3,2.2 fold
same,Magnitude of potentiation in combination with doxorubicin,[4],+ (potentiation between 1.2 to 2.0 fold increase)
same,Magnitude of potentiation in combination with doxorubicin,[6],+++ (potentiation greater than 5 fold increase)
same,Magnitude of potentiation in combination with doxorubicin,"[3]; OVCAR-3, ovarian carcinoma",+ (potentiation between 1.2 to 2.0 fold increase)
same,Magnitude of potentiation in combination with doxorubicin,[1],++ (potentiation between 2.1 to 5 fold increase)
same,Magnitude of potentiation in combination with doxorubicin,[7],++ (potentiation between 2.1 to 5 fold increase)
"COC1C=COC2(C)Oc3c(C)c(O)c4c(c3C2N)C2=NC3(CCN(C(=O)OCC(C)C)CC3)NC2=C(NC(=O)C(C)=CC=CC(C)C(O)C(C)C(O)C(C)C(OC(C)=O)C1C)C4=O (centres unmarked) [RTI-176, 11-deoxy-11-amino-4-deoxy-3,4[2-spiro-[1-(isobutyloxycarbonyl)-piperidin-4-yl]]-(1H)-imidazo-(2,5-dihydro)rifamycin S]",Magnitude of potentiation in combination with doxorubicin,lymphoma cell line G3,+++ (potentiation greater than 5 fold increase)
same,IC50,"lymphoma cell line G3; analog alone, read-out: IC50",> 64 µM
same,Fold increase in potency over DOX alone,lymphoma cell line G3,5.2 fold
same,IC50,lymphoma cell line G3; [12],0.45 µM
same,Magnitude of potentiation in combination with doxorubicin,[6],+++ (potentiation greater than 5 fold increase)
same,Magnitude of potentiation in combination with doxorubicin,[1],+ (potentiation between 1.2 to 2.0 fold increase)
same,comparative cytotoxicity to normal cells,[8],not toxic to normal cells
"COC1C=COC2(C)Oc3c(C)c(O)c4c(c3C2=N)C2=NC3(CCN(C(=O)OCC(C)C)CC3)NC2=C(NC(=O)C(C)=CC=CC(C)C(O)C(C)C(O)C(C)C(OC(C)=O)C1C)C4=O (centres unmarked) [RTI-81, 11-deoxy-11-imino-4-deoxy-3,4[2-spiro-[1-(isobutyloxycarbonyl)-piperidin-4-yl]]-(1H)-imidazo-(2,5-dihydro)rifamycin S]",Magnitude of potentiation in combination with doxorubicin,lymphoma cell line G3,+++ (potentiation greater than 5 fold increase)
same,IC50,"lymphoma cell line G3; analog alone, read-out: IC50",> 64 µM
same,IC50,lymphoma cell line G3; [12],0.3 µM
same,Magnitude of potentiation in combination with doxorubicin,[4],++ (potentiation between 2.1 to 5 fold increase)
same,Magnitude of potentiation in combination with doxorubicin,[6],+++ (potentiation greater than 5 fold increase)
same,Magnitude of potentiation in combination with doxorubicin,[7],+ (potentiation between 1.2 to 2.0 fold increase)
same,longer life than doxorubicin only,[9]; DOX 3.3 mg/kg iv + RTI-81 10 mg/kg by gavage twice weekly,27%
same,mean lifespan,[9]; doxorubicin+RTI-81 group,42.6
same,median lifespan,[9]; doxorubicin+RTI-81 group,42
